Measurements as given in patent US4217274A, “Methoxyethoxymethyl esters of penicillins” (Bristol-Myers Company, priority 1978, dated 1980).
In brackets after ≈: the same amount, converted by molar mass. Read-outs that look alike come from different tables or passages of the source.

Key:
[1] = test system: Str. pyogenes; experiment: MIC, antibiotic dilution technique (agar); type: cell-based, S. pyogenes; conditions: Streptococcus pyogenes
Excerpt: (§1) Bacteria. The organisms, preponderantly of recent clinical origin, were obtained from numerous sources of broad geographical distribution. Obligate anaerobes were maintained in Egg Meat Medium (Difco); Mycobacterium was stored on Lowenstein Medium (Jensen Modification; Difco). The techniques of storing all other organisms have been described previously [Leitner et al., BL-S640, A Cephalosporin with a Broad Spectrum of Antibacterial Activity: Properties in vitro, Antimicrob. Agents Chemother., 7, 298-305 (1975)].
(§2) Antibiotic spectrum. The growth-inhibitory activity of the compounds was determined by the antibiotic dilution technique. Procedures were as follows:
(§3) Aerobic organisms (excluding Mycobacterium). Except for Haemophilus and Neisseria, the assay was performed in Mueller-Hinton Medium (Difco). For fastidious organisms, i.e., Streptococcus, Listeria, Pasteurella, Bordetella and Vibrio, the medium was supplemented with 4% defibrinated sheep blood. The antibiotic susceptibility of Haemophilus and Neisseria was determined in GC Medium Base (BBL) supplemented with 1% Hemoglobin (BBL) and 1% Isovitalex (BBL).
(§4) Overnight broth cultures of an exponentially growing culture (Neisseria) served as the source of inoculum. A volume of approximately 0.003 ml. of the undiluted or diluted culture was applied to the surface of the antibiotic-containing agar plates with the inoculator of Steers et al., An Inocula Replicating Apparatus for Routine Testing of Bacterial Susceptibility to Antibiotics, Antibiot. Chemother., 9, 307-311, (1959). Cultures of Neisseria, Streptococcus pneumoniae, S. viridans and S. pyogenes were used without dilution; those of all other organisms were diluted 100-fold. The inoculum contained about 10^3 viable cells for Neisseria, 10^5 for S. pneumoniae and S. pyogenes, 10^6 for S. viridans and 10^4 for all other species.

[2] = test system: E. Coli; experiment: MIC, antibiotic dilution technique (agar); type: cell-based; conditions: Escherichia coli
Excerpt: as §1, §2, §3, §4

[3] = test system: Ent. cloacae; experiment: MIC, antibiotic dilution technique (agar); type: cell-based; conditions: Enterobacter cloacae, read-out: MIC
Excerpt: as §1, §2, §3, §4

[4] = test system: K. pneumoniae; experiment: MIC, antibiotic dilution technique (agar); type: cell-based; conditions: Klebsiella pneumoniae, read-out: MIC
Excerpt: as §1, §2, §3, §4

[5] = test system: Pr. mirabilis; experiment: MIC, antibiotic dilution technique (agar); type: cell-based; conditions: Proteus mirabilis
Excerpt: as §1, §2, §3, §4

[6] = test system: Pr. morganii; experiment: MIC, antibiotic dilution technique (agar); type: cell-based; conditions: Morganella morganii, read-out: MIC
Excerpt: as §1, §2, §3, §4

[7] = test system: Pr. rettgeri; experiment: MIC, antibiotic dilution technique (agar); type: cell-based; conditions: Providencia rettgeri
Excerpt: as §1, §2, §3, §4

[8] = test system: Pr. vulgaris; experiment: MIC, antibiotic dilution technique (agar); type: cell-based; conditions: Proteus vulgaris
Excerpt: as §1, §2, §3, §4

[9] = test system: Ps. aeruginosa; experiment: MIC, antibiotic dilution technique (agar); type: cell-based; conditions: Pseudomonas aeruginosa, read-out: MIC
Excerpt: as §1, §2, §3, §4

[10] = test system: S. aureus Meth-Res.; experiment: MIC, antibiotic dilution technique (agar); type: cell-based; conditions: Staphylococcus aureus
Excerpt: as §1, §2, §3, §4

[11] = test system: S. aureus Pen-Res.; experiment: MIC, antibiotic dilution technique (agar); type: cell-based; conditions: Staphylococcus aureus, read-out: MIC
Excerpt: as §1, §2, §3, §4

[12] = test system: S. aureus; experiment: MIC, antibiotic dilution technique (agar); type: cell-based; conditions: Staphylococcus aureus
Excerpt: as §1, §2, §3, §4

[13] = test system: Ser. marcescens; experiment: MIC, antibiotic dilution technique (agar); type: cell-based; conditions: Serratia marcescens
Excerpt: as §1, §2, §3, §4

[14] = test system: Str. faecalis; experiment: MIC, antibiotic dilution technique (agar); type: cell-based; conditions: Enterococcus faecalis
Excerpt: as §1, §2, §3, §4

[15] = test system: Str. pneumoniae; experiment: MIC, antibiotic dilution technique (agar); type: cell-based; conditions: Streptococcus pneumoniae
Excerpt: as §1, §2, §3, §4

[16] = test system: E. Coli; experiment: MIC, antibiotic dilution technique (agar), Table 4; type: cell-based; conditions: Escherichia coli
Excerpt: as §1, §2, §3, §4

[17] = test system: E. cloacae; experiment: MIC, antibiotic dilution technique (agar), Table 4; type: cell-based; conditions: Enterobacter cloacae; Table 4, 2 strains, geometric mean where applicable
Excerpt: as §1, §2, §3, §4

[18] = test system: K. pneumoniae; experiment: MIC, antibiotic dilution technique (agar), Table 4; type: cell-based; conditions: Klebsiella pneumoniae, Table 4, K. pneumoniae, read-out: MIC
Excerpt: as §1, §2, §3, §4

[19] = test system: P. mirabilis; experiment: MIC, antibiotic dilution technique (agar), Table 4; type: cell-based; conditions: Proteus mirabilis, Table 4, P. mirabilis, geometric mean where applicable, read-out: MIC
Excerpt: as §1, §2, §3, §4

[20] = test system: P. rettgeri; experiment: MIC, antibiotic dilution technique (agar), Table 4; type: cell-based; conditions: Providencia rettgeri
Excerpt: as §1, §2, §3, §4

[21] = test system: S. aureus (lacking penase); experiment: MIC, antibiotic dilution technique (agar), Table 4; type: cell-based; conditions: Staphylococcus aureus; Table 4, 6 strains, geometric mean where applicable
Excerpt: as §1, §2, §3, §4

[22] = test system: S. faecalis; experiment: MIC, antibiotic dilution technique (agar), Table 4; type: cell-based; conditions: Enterococcus faecalis; Table 4, 6 strains, geometric mean where applicable
Excerpt: as §1, §2, §3, §4

[23] = test system: S. marcescens; experiment: MIC, antibiotic dilution technique (agar), Table 4; type: cell-based
Excerpt: as §1, §2, §3, §4

[24] = test system: S. pneumoniae; experiment: MIC, antibiotic dilution technique (agar), Table 4; type: cell-based; conditions: Streptococcus pneumoniae; Table 4, 7 strains, geometric mean where applicable
Excerpt: as §1, §2, §3, §4

[25] = test system: S. pyogenes; experiment: MIC, antibiotic dilution technique (agar), Table 4; type: cell-based; conditions: Streptococcus pyogenes; Table 4, 6 strains, geometric mean where applicable
Excerpt: as §1, §2, §3, §4

[26] = test system: S. viridans; experiment: MIC, antibiotic dilution technique (agar), Table 4; type: cell-based; conditions: Streptococcus viridans
Excerpt: as §1, §2, §3, §4

[27] = test system: Streptococcus sp. (β-hemolytic); experiment: MIC, antibiotic dilution technique (agar), Table 4; type: cell-based; conditions: Table 4, 6 strains, geometric mean where applicable
Excerpt: as §1, §2, §3, §4

[28] = test system: p. vulgaris; experiment: MIC, antibiotic dilution technique (agar), Table 4; type: cell-based; conditions: Proteus vulgaris; Table 4, 2 strains, geometric mean where applicable
Excerpt: as §1, §2, §3, §4

Structure (SMILES): COCCOCOC(=O)[C@@H]1N2C(=O)[C@@H](N3C(=O)[C@@H](c4ccccc4)NC3(C)C)[C@H]2SC1(C)C [RN-1492, Methoxyethoxymethyl Ester of Hetacillin]
- MIC ([1]; Table 1, Str. pyogenes): 0.008 µg/mL (≈ 0.0168 µM)
- MIC ([2]; Table 1, E. Coli, first line): 2 µg/mL (≈ 4.19 µM)
- MIC ([2]; Table 1, E. Coli, second line): 63 µg/mL (≈ 132 µM)
- MIC ([3]; Table 1, Ent. cloacae, first line): 63 µg/mL (≈ 132 µM)
- MIC ([3]; Table 1, Ent. cloacae, second line): 63 µg/mL (≈ 132 µM)
- MIC ([4]; Table 1, K. pneumoniae, first line): 63 µg/mL (≈ 132 µM)
- MIC ([4]; Table 1, K. pneumoniae, second line): 32 µg/mL (≈ 67 µM)
- MIC ([5]; Table 1, Pr. mirabilis): 0.25 µg/mL (≈ 0.523 µM)
- MIC ([6]; Table 1, Pr. morganni): 32 µg/mL (≈ 67 µM)
- MIC ([7]; Table 1, Pr. rettgeri): 16 µg/mL (≈ 33.5 µM)
- MIC ([8]; Table 1, Pr. vulgaris): 0.25 µg/mL (≈ 0.523 µM)
- MIC ([9]; Table 1, Ps. aeruginosa, first line): 63 µg/mL (≈ 132 µM)
- MIC ([9]; Table 1, Ps. aeruginosa, second line): 125 µg/mL (≈ 262 µM)
- MIC ([10]; Table 1, S. aureus Meth-Res.): 63 µg/mL (≈ 132 µM)
- MIC ([11]; Table 1, S. aureus Pen-Res.): > 125 µg/mL
- MIC ([12]; Table 1, S. aureus): 0.06 µg/mL (≈ 0.126 µM)
- MIC ([12]; Table 1, S. aureus + 50% serum): 0.13 µg/mL
- MIC ([13]; Table 1, Ser. marcescens): 32 µg/mL (≈ 67 µM)
- MIC ([14]; Table 1, Str. faecalis): 0.5 µg/mL (≈ 1.05 µM)
- MIC ([15]; Table 1, Str. pneumoniae): 0.004 µg/mL (≈ 0.00838 µM)
- MIC ([16]; 1 strain (first line)): 2 µg/mL (≈ 4.19 µM)
- MIC ([16]; 1 strain (fourth line)): > 125 µg/mL
- MIC ([16]; 1 strain (third line)): 63 µg/mL (≈ 132 µM)
- MIC ([16]; 3 strains (second line), geometric mean where applicable): 5 µg/mL (≈ 10.5 µM)
- MIC [17]: > 125 µg/mL
- MIC ([18]; 1 strain (first line)): 63 µg/mL (≈ 132 µM)
- MIC ([18]; 1 strain (second line)): > 125 µg/mL
- MIC ([19]; 2 strains): > 125 µg/mL
- MIC ([19]; 4 strains): 4 µg/mL (≈ 8.38 µM)
- MIC ([20]; Table 4, P. retgeri, 2 strains (third line), geometric mean where applicable): 63 µg/mL (≈ 132 µM)
- MIC ([20]; Table 4, P. rettgeri, 1 strain (first line)): 0.25 µg/mL (≈ 0.523 µM)
- MIC ([20]; Table 4, P. rettgeri, 1 strain (second line)): 16 µg/mL (≈ 33.5 µM)
- MIC [21]: 0.18 µg/mL (≈ 0.377 µM)
- MIC [22]: 2 µg/mL (≈ 4.19 µM)
- MIC ([23]; 1 strain (second line)): > 125 µg/mL
- MIC ([23]; Serratia marcescens, 1 strain (first line), read-out: MIC): > 125 µg/mL
- MIC [24]: 0.032 µg/mL (≈ 0.067 µM)
- MIC [25]: 0.027 µg/mL (≈ 0.0565 µM)
- MIC ([26]; Table 4, S. viridans, 1 strain (second line)): 0.25 µg/mL (≈ 0.523 µM)
- MIC ([26]; Table 4, S. viridans, 3 strains, geometric mean where applicable): 0.05 µg/mL (≈ 0.105 µM)
- MIC ([26]; Table 4, s. viridans, 1 strain (third line)): 0.5 µg/mL (≈ 1.05 µM)
- MIC [27]: 0.13 µg/mL (≈ 0.272 µM)
- MIC [28]: 0.5 µg/mL (≈ 1.05 µM)

Structure (SMILES): COCCOCOC(=O)[C@@H]1N2C(=O)[C@@H](N3C(=O)[C@@H](c4ccc(O)cc4)NC3(C)C)[C@H]2SC1(C)C [RN-1493, Methoxyethoxymethyl Ester of Heta-Amoxicillin]
- MIC ([1]; Table 2, Str. pyogenes): 0.008 µg/mL (≈ 0.0162 µM)
- MIC ([2]; Table 2, E. coli, first line): 2 µg/mL (≈ 4.05 µM)
- MIC ([2]; Table 2, E. coli, second line): 63 µg/mL (≈ 128 µM)
- MIC ([3]; Table 2, Ent. cloacae, first line): 63 µg/mL (≈ 128 µM)
- MIC ([3]; Table 2, Ent. cloacae, second line): 63 µg/mL (≈ 128 µM)
- MIC ([4]; Table 2, K. pneumoniae, first line): 63 µg/mL (≈ 128 µM)
- MIC ([4]; Table 2, K. pneumoniae, second line): 63 µg/mL (≈ 128 µM)
- MIC ([5]; Table 2, Pr. mirabilis): 0.5 µg/mL (≈ 1.01 µM)
- MIC ([6]; Table 2, Pr. morganii): 16 µg/mL (≈ 32.4 µM)
- MIC ([7]; Table 2, Pr. rettgeri): 32 µg/mL (≈ 64.8 µM)
- MIC ([8]; Table 2, Pr. vulgaris): 0.5 µg/mL (≈ 1.01 µM)
- MIC ([9]; Table 2, Ps. aeruginosa, first line): 63 µg/mL (≈ 128 µM)
- MIC ([9]; Table 2, Ps. aeruginosa, second line): 63 µg/mL (≈ 128 µM)
- MIC ([10]; Table 2, S. aureus Meth-Res.): 63 µg/mL (≈ 128 µM)
- MIC ([11]; Table 2, S. aureus Pen-Res.): 125 µg/mL (≈ 253 µM)
- MIC ([12]; Table 2, S. aureus): 0.06 µg/mL (≈ 0.122 µM)
- MIC ([12]; Table 2, S. aureus + 50% serum): 0.25 µg/mL
- MIC ([13]; Table 2, Ser. marcescens): 32 µg/mL (≈ 64.8 µM)
- MIC ([14]; Table 2, Str. faecalis): 0.5 µg/mL (≈ 1.01 µM)
- MIC ([15]; Table 2, Str. pneumoniae): 0.004 µg/mL (≈ 0.0081 µM)
